Reference: BigSolDB 2.1

C=C1CCN([C@H](C)[C@](O)(Cn2cncn2)c2ccc(F)cc2F)CC1
solubility (mole fraction)
Conditions | 288.15 K | 293.15 K | 298.15 K | 303.15 K | 308.15 K
in DMF | 0.281 | 0.298 | 0.316 | 0.334 | 0.353
in THF | 0.321 | 0.335 | 0.351 | 0.367 | 0.382
in acetone | 0.243 | 0.261 | 0.28 | 0.301 | 0.321
in acetonitrile | 0.0874 | 0.109 | 0.136 | 0.168 | 0.204
in dichloromethane | 0.321 | 0.34 | 0.358 | 0.379 | 0.4
in ethanol | 0.122 | 0.144 | 0.172 | 0.203 | 0.242
in ethyl acetate | 0.231 | 0.251 | 0.272 | 0.297 | 0.321
in isopropanol | 0.0849 | 0.105 | 0.125 | 0.152 | 0.184
in methanol | 0.176 | 0.195 | 0.214 | 0.236 | 0.259
in n-butanol | 0.113 | 0.135 | 0.159 | 0.185 | 0.218
in n-propanol | 0.12 | 0.142 | 0.164 | 0.191 | 0.222
in propylene glycol | 0.0278 | 0.031 | 0.0343 | 0.0384 | 0.0424
in transcutol | 0.218 | 0.233 | 0.247 | 0.262 | 0.276
in water | 1.08e-06 | 1.4e-06 | 1.77e-06 | 2.29e-06 | 2.91e-06

Conditions | solubility (mole fraction)
in PEG-400, 288.15 K | 0.171
in PEG-400, 293.15 K | 0.182
in PEG-400, 298.15 K | 0.194
in PEG-400, 303.15 K | 0.206
in PEG-400, 308.15 K | 0.219
